For experiment [1], the system named is HeLa. Nature of the experiment: Anticancer activity against human HeLa cells after 24 hrs by MTT assay. The format is functional, cell-based. A general note: Tetrazolium assays rely on reduction of a dye to a coloured formazan, in cell work by metabolically active cells.
Experiment [2] has as its system HeLa. Nature of the experiment: Viability of human HeLa cells at 1 uM after 24 hrs by MTT assay.
The test system of experiment [3] is HeLa. Nature of the experiment: Viability of human HeLa cells at 5 uM after 24 hrs by MTT assay.
The test system of experiment [4] is HeLa. Nature of the experiment: Viability of human HeLa cells at 10 uM after 24 hrs by MTT assay.
Experiment [5] concerns HeLa. Nature of the experiment: Viability of human HeLa cells at 20 uM after 24 hrs by MTT assay.
Experiment [6] relates to HeLa. Nature of the experiment: Viability of human HeLa cells at 0.1 uM after 24 hrs by MTT assay.

Twelve molecules from ChEMBL document CHEMBL1153599, “Synthesis of new chiral 2,5-disubstituted 1,3,4-thiadiazoles possessing gamma-butenolide moiety and preliminary evaluation of in vitro anticancer activity” (Eur J Med Chem, 2009) can be followed below.

A word on the IC50: it is the concentration that gives 50% inhibition. What is called viability is a read-out of living cells in per cent, often relative to untreated cells. The low end stands for more harm to the cells, the high end for less harm to the cells. `COc1ccc(-c2nnc(SC3=C(Br)C(=O)O[C@@H]3OC3CC(C)CCC3C(C)C)s2)cc1` (some centres not stated): 3700 nM corresponded to half-maximal inhibition with HeLa [1] (IC50). In the experiment with HeLa [2], this molecule had a viability at 1 µM of 55.6%. Besides, in the experiment on HeLa [3], the viability at 5 µM amounted to 47.1%. Further, in the experiment on HeLa [4], the viability at 10 µM is 35.6%. The same molecule gave a viability at 20 µM with HeLa [5] of 32.9%. The molecule also displayed a viability at 0.1 µM in the experiment on HeLa [6] of 56.4%.
As to `CC1CCC(C(C)C)C(O[C@H]2OC(=O)C(Br)=C2Sc2nnc(-c3ccc(Cl)cc3)s2)C1` (some centres not stated), half-maximal inhibition in the experiment on HeLa [1] (IC50) was put at 2200 nM. In the experiment on HeLa [2], the viability at 1 µM was determined as 58.2%. Besides, in the experiment on HeLa [3], the viability at 5 µM is 29.3%. This molecule registered a viability at 10 µM in the experiment on HeLa [4] of 35.1%. Moreover, in the experiment with HeLa [5], the viability at 20 µM is 26.8%. In the experiment with HeLa [6], this molecule had a viability at 0.1 µM of 51%.
In the case of `CC1(C)C2CCC1(C)C(O[C@H]1OC(=O)C(Br)=C1Sc1nnc(-c3ccco3)s1)C2` (some centres not stated), in the experiment on HeLa [1], the IC50 is 1300 nM. For the same molecule, the viability at 1 µM with HeLa [2] was determined as 51.4%. In the experiment on HeLa [3], this molecule returned a viability at 5 µM of 31.1%. In addition, in the experiment on HeLa [4], the viability at 10 µM was determined as 28.6%. Besides, the viability at 20 µM in the experiment on HeLa [5] was found to be 34.3%. In addition, in the experiment with HeLa [6], the viability at 0.1 µM came out at 50.9%.
Turning to `CC1CCC(C(C)C)C(O[C@H]2OC(=O)C(Br)=C2Sc2nnc(-c3ccc([N+](=O)[O-])cc3)s2)C1` (some centres not stated), in the experiment on HeLa [1], the IC50 is 900 nM. For the same molecule, the viability at 1 µM with HeLa [2] came out at 47.6%. In addition, the viability at 5 µM in the experiment on HeLa [3] is 30%. Moreover, in the experiment on HeLa [4], the viability at 10 µM came to 34.5%. The molecule further yielded a viability at 20 µM in the experiment with HeLa [5] of 24.5%. Also, the viability at 0.1 µM with HeLa [6] came to 59.2%.
`CC1CCC(C(C)C)C(O[C@H]2OC(=O)C(Br)=C2Sc2nnc(-c3cccnc3)s2)C1` (some centres not stated) returned an IC50 with HeLa [1] of 5600 nM. Also, in the experiment with HeLa [2], the viability at 1 µM was 59.5%. In addition, the viability at 5 µM with HeLa [3] was 52.3%. In addition, the viability at 10 µM with HeLa [4] is 32.8%. In the experiment on HeLa [5], this molecule came in with a viability at 20 µM of 33%. In the experiment with HeLa [6], this molecule displayed a viability at 0.1 µM of 56.4%.
`CC1(C)C2CCC1(C)C(O[C@H]1OC(=O)C(Br)=C1Sc1nnc(-c3cccnc3)s1)C2` (some centres not stated) returned an IC50 with HeLa [1] of 3400 nM. For the same molecule, in the experiment on HeLa [2], the viability at 1 µM was 56.3%. Further, the viability at 5 µM in the experiment with HeLa [3] is 45.4%. This molecule registered a viability at 10 µM with HeLa [4] of 40.5%. Besides, the viability at 20 µM with HeLa [5] came to 36.3%. Also, in the experiment on HeLa [6], the viability at 0.1 µM came to 58.9%.
`CC1CCC(C(C)C)C(O[C@H]2OC(=O)C(Br)=C2Sc2nnc(-c3ccco3)s2)C1` (some centres not stated) yielded an IC50 in the experiment with HeLa [1] of 1700 nM. For the same molecule, the viability at 1 µM in the experiment on HeLa [2] is 54.3%. Moreover, the viability at 5 µM in the experiment with HeLa [3] came to 29.4%. The viability at 10 µM in the experiment on HeLa [4] stood at 36.9%. The viability at 20 µM in the experiment with HeLa [5] is 27.2%. In addition, the viability at 0.1 µM with HeLa [6] is 55.6%.
For `CC1CCC(C(C)C)C(O[C@H]2OC(=O)C(Br)=C2Sc2nnc(-c3ccccc3)s2)C1` (some centres not stated), the IC50 in the experiment on HeLa [1] worked out at 3000 nM. This molecule also displayed a viability at 1 µM with HeLa [2] of 59.1%. In the experiment with HeLa [3], the viability at 5 µM amounted to 40.6%. In the experiment on HeLa [4], this molecule came in with a viability at 10 µM of 28.1%. Besides, the viability at 20 µM in the experiment on HeLa [5] came out at 29.7%. Also, in the experiment with HeLa [6], the viability at 0.1 µM came out at 56.1%.
For the molecule `CC1CCC(C(C)C)C(O[C@H]2OC(=O)C(Br)=C2Sc2nnc(-c3ccncc3)s2)C1` (some centres not stated), in the experiment on HeLa [1], the half-maximal inhibitory concentration (IC50) turned out to be 1300 nM. The molecule further showed a viability at 1 µM in the experiment with HeLa [2] of 51.3%. Also, the viability at 5 µM in the experiment with HeLa [3] stood at 33.9%. In the experiment with HeLa [4], this molecule came in with a viability at 10 µM of 26.8%. This molecule registered a viability at 20 µM in the experiment on HeLa [5] of 22.3%. Also, in the experiment with HeLa [6], the viability at 0.1 µM amounted to 73.8%.
Regarding `CC1CCC(C(C)C)C(O[C@H]2OC(=O)C(Br)=C2Sc2nnc(-c3ccccc3O)s2)C1` (some centres not stated), the IC50 in the experiment on HeLa [1] was determined as 2900 nM. In the experiment with HeLa [2], this molecule showed a viability at 1 µM of 61.2%. In the experiment with HeLa [3], this molecule had a viability at 5 µM of 37.5%. For the same molecule, the viability at 10 µM with HeLa [4] was 42.3%. This molecule returned a viability at 20 µM with HeLa [5] of 33.4%. The same molecule returned a viability at 0.1 µM in the experiment on HeLa [6] of 58.9%.
The molecule `CC1CCC(C(C)C)C(O[C@H]2OC(=O)C(Br)=C2Sc2nnc(-c3ccc(O)cc3)s2)C1` (some centres not stated) returned an IC50 in the experiment on HeLa [1] of 2600 nM. Moreover, the viability at 1 µM in the experiment with HeLa [2] was 59.4%. In addition, the viability at 5 µM in the experiment on HeLa [3] came to 36%. This molecule had a viability at 10 µM in the experiment on HeLa [4] of 44.4%. In the experiment with HeLa [5], this molecule yielded a viability at 20 µM of 36%. In addition, the viability at 0.1 µM with HeLa [6] came to 60.6%.
On to `CC1(C)C2CCC1(C)C(O[C@H]1OC(=O)C(Br)=C1Sc1nnc(-c3ccncc3)s1)C2` (some centres not stated), for which the IC50 with HeLa [1] is 3000 nM. This molecule also displayed a viability at 1 µM with HeLa [2] of 55.1%. The viability at 5 µM in the experiment on HeLa [3] is 44.9%. This molecule also yielded a viability at 10 µM with HeLa [4] of 39.4%. The molecule also yielded a viability at 20 µM in the experiment with HeLa [5] of 40.6%. Further, the viability at 0.1 µM in the experiment on HeLa [6] came out at 51.8%.
